Earlier results on one compound are cited in US20220000787A1, “DELAYED RELEASE PHARMACEUTICAL COMPOSITION OF PREDNISONE AND PREPARATION THEREOF” (PIRAMAL PHARMA LIMITED, priority 2020, published 2022).

Take `C[C@]12C=CC(=O)C=C1CC[C@@H]1[C@@H]2C(=O)C[C@@]2(C)[C@H]1CC[C@]2(O)C(=O)CO` [Prednisone, 17,21-dihydroxypregna-1,4-diene-3,11,20-trione]: under “alcohol, chloroform, dioxane, methanol”, the “Solubility in alcohol, chloroform, dioxane, and methanol” value is “slightly soluble”. For the same compound, the Solubility in water result (water) is listed as “very slightly soluble”.
